{
  "source": "patent US20230255974A1",
  "about": "“USE OF THYROMIMETICS FOR THE TREATMENT OF CANCER” (THE UNIVERSITY OF VERMONT, priority 2020, published 2023)",
  "tested_on": "SW1736 cells (SW-EV, SW-TRβ)",
  "test": "Growth assay (live cell imaging), T3",
  "format": "cell-based, human",
  "experimental": "Culture of thyroid cell lines. Anaplastic thyroid cancer cell lines (SW1736 and KTC-2) were cultured in RPMI 1640 growth media with L-glutamine (300 mg/L), sodium pyruvate and nonessential amino acids (1%) (Cellgro/Mediatech), supplemented with 10% fetal bovine serum (Life Technologies) and penicillin-streptomycin ([…]) (Cellgro/Mediatech) at 37° C., 5% CO2, and 100% humidity. The cell lines were generously provided by Dr. John Copland III (Mayo Clinic). Lentivirally modified SW1736 cells were generated as recently described (Gillis et al., “Thyroid Hormone Receptor β Suppression of RUNX2 is Mediated by Brahma Related Gene 1 Dependent Chromatin Remodeling.” Endocrinol. 159(6):2484-94 (2018), which is hereby incorporated by reference in its entirety) with either an empty vector (SW-EV) or to overexpress TRβ (SW-TRβ). SW-EV and SW-TRβ were grown in the above conditions with the addition of 1 μg/ml puromycin (Gold Bio). All cells were authenticated by the Vermont Integrative Genomics Resource at the University of Vermont using short tandem repeat profiles and Promega GenePrint10 System (SW1736, May 2019; KTC-2, October 2019).\nGrowth Assays. Cell growth was measured either through live cell imaging or by cell counting at discrete points. Live cell imaging was used to assess the growth kinetics of SW-EV and SW-TRβ. To perform live cell imaging, 5000 cells were plated per well in 24 well plates. After 24 hours in phenol red free, charcoal stripped media, media was supplemented with either 10^−8 M T3 or equivolume vehicle (NaOH). Every two hours cells were imaged with a Lionheart automated microscope (BioTek) and quantified with Gen5 software (BioTek). The cells entered the log phase of growth at approximately 48 hours, and the portion of the curve following this point was used to calculate the doubling time of the cells. In order to measure growth manually, 25,000 cells were plated per well in a six well plate. […] Every 24 hours cell counts were assessed by hemocytometer.",
  "data": [
    {"smiles": "N[C@@H](Cc1cc(I)c(Oc2ccc(O)c(I)c2)c(I)c1)C(=O)O", "note": "[T3, (2S)-2-amino-3-[4-(4-hydroxy-3-iodophenoxy)-3,5-diiodophenyl]propanoic acid]", "values": [
      {"measurement": "growth rate", "setting": "SW-EV, 10^−8 M T3 vs vehicle", "result": "modestly decreased the growth rate"},
      {"measurement": "cellular growth", "setting": "SW-TRβ (TRβ overexpression), 10^−8 M T3", "result": "profoundly reduced cellular growth"},
      {"measurement": "doubling time", "setting": "SW-TRβ, T3 treated", "result": "greatest doubling time"}
    ]}
  ]
}
